Measured values from patent US9115143B2, “Substituted indole derivatives as gamma secretase modulators” (Janssen Pharmaceuticals, Inc., priority 2011, dated 2015).

How the values were obtained:
Aβ42 = assay: In vivo efficacy B-1a: brain soluble Aβ42 in non-transgenic rodents, ELISA; parameters: species or system mouse; conditions: dose 30 mg/kg oral dosing, brain soluble fraction, untreated animals (Ctrl) set at 100; for response vs control in vivo at 30 mg/kg: Mus musculus, po, read-out: Aβ42 (% vs Ctrl)_Mean
Excerpt: (§1) To determine whether acute administration of an Aβ42 lowering agent would reduce Aβ42 levels in vivo, non-transgenic rodents, e.g. mice or rats were used. Animals treated with the Aβ42 lowering agent were examined and compared to those untreated or treated with vehicle and brain levels of soluble Aβ42 and total Aβ were quantitated by standard techniques, for example, using ELISA. Treatment periods varied from hours (h) to days and were adjusted based on the results of the Aβ42 lowering once a time course of onset of effect could be established.
(§2) A typical protocol for measuring Aβ42 lowering in vivo is shown but it is only one of many variations that could be used to optimize the levels of detectable Aβ. For example, Aβ42 lowering compounds were formulated in 20% of Captisol® (a sulfobutyl ether of β-cyclodextrin) in water or 20% hydroxypropyl β cyclodextrin. The Aβ42 lowering agents were administered as a single oral dose or by any acceptable route of administration to overnight fasted animals. After 4 h, the animals were sacrificed and Aβ42 levels were analysed.
(§3) Blood was collected by decapitation and exsanguinations in EDTA-treated collection tubes. Blood was centrifuged at 1900 g for 10 minutes (min) at 4° C. and the plasma recovered and flash frozen for later analysis. The brain was removed from the cranium and hindbrain. The cerebellum was removed and the left and right hemisphere were separated. The left hemisphere was stored at −18° C. for quantitative analysis of test compound levels. The right hemisphere was rinsed with phosphate-buffered saline (PBS) buffer and immediately frozen on dry ice and stored at −80° C. until homogenization for biochemical assays.
(§4) Mouse brains from non-transgenic animals were resuspended in 8 volumes of 0.4% DEA (diethylamine)/50 mM NaCl containing protease inhibitors (Roche-11873580001 or 04693159001) per gram of tissue, e.g. for 0.158 g brain, add 1.264 mL of 0.4% DEA. All samples were homogenized in the FastPrep-24 system (MP Biomedicals) using lysing matrix D (MPBio #6913-100) at 6 m/s for 20 seconds. Homogenates were centrifuged at 20800×g for 5 min and supernatants collected. Supernatants were centrifuged at 221.300×g for 50 min. The resulting high speed supernatants were then transferred to fresh eppendorf tubes. Nine parts of supernatant were neutralized with 1 part 0.5 M Tris-HCl pH 6.8 and used to quantify Aβtotal and Aβ42.
To quantify the amount of Aβtotal and Aβ42 in the soluble fraction of the brain homogenates, Enzyme-Linked-Immunosorbent-Assays were used. Briefly, the standards (a dilution of synthetic Aβ1-40 and Aβ1-42, Bachem) were prepared in 1.5 mL Eppendorf tube in Ultraculture, with final concentrations ranging from 10000 to 0.3 pg/mL. The samples and standards were co-incubated with HRPO-labelled N-terminal antibody JRF/rAμ/2 for Aβ42 detection and with the biotinylated mid-domain antibody 4G8 for Aβtotal detection. 50 μl of conjugate/sample or conjugate/standards mixtures were then added to the antibody-coated plate (the capture antibodies selectively recognize the C-terminal end of Aβ42, antibody JRF/cAβ42/26, for Aβ42 detection and the N-terminus of AB, antibody JRF/rAβ/2, for Aβtotal detection). The plate was allowed to incubate overnight at 4° C. in order to allow formation of the antibody-amyloid complex. Following this incubation and subsequent wash steps the ELISA for Aβ42 quantification was finished by addition of Quanta Blu fluorogenic peroxidase substrate according to the manufacturer's instructions (Pierce Corp., Rockford, Ill.). A reading was performed after 10 to 15 min (excitation 320 nm/emission 420 nm).
In this model a Aβ42 lowering compared to untreated animals would be advantageous, in particular a Aβ42 lowering with at least 10%, more in particular a Aβ42 lowering with at least 20%.
The results are shown in Table 4 (dose 30 mg/kg oral dosing) (value for untreated animals as control (Ctrl) was set at 100): […]

Aβ38 = assay: In vivo efficacy B-2a: brain soluble Aβ38 in non-transgenic rodents, ELISA; parameters: species or system mouse; conditions: dose 30 mg/kg oral dosing, brain soluble fraction, untreated animals (Ctrl) set at 100; for response vs control in vivo at 30 mg/kg: Mus musculus, po, read-out: Aβ38 (% vs Ctrl)_Mean
Excerpt: Aβ38 increasing agents can be administered in any standard form using any standard method. For example, but not limited to, Aβ38 increasing agents can be in the form of liquid, tablets or capsules that are taken orally or by injection.
as §1, with “Aβ38 increasing agents” for “Aβ42 lowering agent”, “increase Aβ38” for “reduce Aβ42”, “Aβ38” for “Aβ42”, “Aβ38 increase” for “Aβ42 lowering”
as §2, with “measuring Aβ38 increase” for “measuring Aβ42 lowering”, “example, Aβ38 increasing agents” for “example, Aβ42 lowering compounds”, “The Aβ38 increasing” for “The Aβ42 lowering”, “and Aβ38” for “and Aβ42”
as §3
as §4, with “Aβ38.” for “Aβ42.”
To quantify the amount of Aβtotal and Aβ38 in the soluble fraction of the brain homogenates, Enzyme-Linked-Immunosorbent-Assays were used. Briefly, the standards (a dilution of synthetic Aβ1-40 and Aβ1-38, ANASPEC) were prepared in 1.5 mL Eppendorf tube in Ultraculture, with final concentrations ranging from 10000 to 0.3 pg/mL. The samples and standards were co-incubated with HRPO-labelled N-terminal antibody for Aβ38 detection and with the biotinylated mid-domain antibody 4G8 for Aβtotal detection. 50 μl of conjugate/sample or conjugate/standards mixtures were then added to the antibody-coated plate (the capture antibodies selectively recognize the C-terminal end of Aβ38, antibody J&JPRD/Aβ38/5, for Aβ38 detection and the N-terminus of Aβ, antibody JRF/rAβ/2, for Aβtotal detection). The plate was allowed to incubate overnight at 4° C. in order to allow formation of the antibody-amyloid complex. Following this incubation and subsequent wash steps the ELISA for Aβ38 quantification was finished by addition of Quanta Blu fluorogenic peroxidase substrate according to the manufacturer's instructions (Pierce Corp., Rockford, Ill.). A reading was performed after 10 to 15 min (excitation 320 nm/emission 420 nm). […]

| SMILES | response vs control in vivo at 30 mg/kg (Aβ42) [%] | response vs control in vivo at 30 mg/kg (Aβ38) [%] | Aβ42 (% vs Ctrl)_Mean (Aβ42; 30 mg/kg) [% vs Ctrl] | Aβ38 (% vs Ctrl)_Mean (Aβ38; 30 mg/kg) [% vs Ctrl] |
| --- | --- | --- | --- | --- |
| Cc1cn(-c2ccc3[nH]c(-c4nc5n(n4)CCCC5c4ccc(F)cc4C)cc3c2)cn1 (centres unmarked) [Compound 73, 8-(4-fluoro-2-methylphenyl)-5,6,7,8-tetrahydro-2-[5-(4-methyl-1H-imidazol-1-yl)-1H-indol-2-yl]-[1,2,4]triazolo[1,5-a]pyridine] | 43 | 120 | – | – |
| COc1c(C#N)ccc2[nH]c(-c3cn4c(n3)C(c3ccc(F)cc3C)CCC4)cc12 (centres unmarked) [Compound 74, 2-[8-(4-fluoro-2-methylphenyl)-5,6,7,8-tetrahydroimidazo[1,2-a]pyridin-2-yl]-4-methoxy-1H-indole-5-carbonitrile] | 49 | 117 | – | – |
| COc1c(-c2cnn(C)c2)ccc2[nH]c(-c3cn4c(n3)C(c3ccc(F)cc3C)OCC4)cc12 (centres unmarked) [Compound 96, 8-(4-fluoro-2-methylphenyl)-5,6-dihydro-2-[4-methoxy-5-(1-methyl-1H-pyrazol-4-yl)-1H-indol-2-yl]-8H-imidazo[2,1-c][1,4]oxazine] | 55 | 124 | – | – |
| Cc1cc(F)ccc1C1OCCn2cc(-c3cc4cc(-c5cnn(C)c5)ccc4[nH]3)nc21 (centres unmarked) [Compound 99, 8-(4-fluoro-2-methylphenyl)-5,6-dihydro-2-[5-(1-methyl-1H-pyrazol-4-yl)-1H-indol-2-yl]-8H-imidazo[2,1-c][1,4]oxazine] | 63 | 96 | – | – |
| COc1c(C#N)ccc2[nH]c(-c3nc4n(n3)CCOC4c3ccc(F)cc3C)cc12 (centres unmarked) [Compound 111, 2-[8-(4-fluoro-2-methylphenyl)-5,6-dihydro-8H-[1,2,4]triazolo[5,1-c][1,4]oxazin-2-yl]-4-methoxy-1H-indole-5-carbonitrile] | 87 | 107 | – | – |
| COc1c(C#N)ccc2[nH]c(-c3nc4n(n3)CCOC4c3ccc(F)cc3C)cc12 (centres unmarked) [Compound 114, 2-[8-(4-fluoro-2-methylphenyl)-5,6-dihydro-8H-[1,2,4]triazolo[5,1-c][1,4]oxazin-2-yl]-4-methoxy-1H-indole-5-carbonitrile] | – | – | 95 | 88 |
| Cc1cn(-c2ccc3[nH]c(-c4nc5n(n4)CCCC5c4ccc(F)cc4C)nc3c2)cn1 (centres unmarked) [Compound 176, 8-(4-fluoro-2-methylphenyl)-5,6,7,8-tetrahydro-2-[5-(4-methyl-1H-imidazol-1-yl)-1H-benzimidazol-2-yl]-[1,2,4]triazolo[1,5-a]pyridine] | 93 | 93 | – | – |
